Read-outs that look alike come from different tables or passages of the source.
Key:
Cladosporium cucumerinum = test: Mycelial growth test; type: cell-based; conditions: CC; for inhibition at 5 ppm / inhibition at 10 ppm / inhibition at 40 ppm / inhibition at 20 ppm: Cladosporium cucumerinum, read-out: Percent Fungus Growth Inhibition; for inhibition at 5 ppm / inhibition at 10 ppm / inhibition at 40 ppm: 72 h; for inhibition at 20 ppm: CC20, 72 h
From the text: |CC = Cladosporium cucumerinum

Phytophthora infestans [1] = type: cell-based; conditions: PI, 48 hours
Phytophthora infestans [2] = test: whole plant or invertebrate; type: in vivo; conditions: for pest or weed control at 150 ppm: Phytophthora infestans, in Solanum lycopersicum, foliar, read-out: Percent Disease Control, foliar, tomato late blight, 150 ppm, protective

SMILES: O=c1c(Cl)nsnc1Oc1ccc(O)cc1 [Compound 35, 3-chloro-5-(4-hydroxyphenoxy)-4H-1,2,6-thiadiazin-4-one]
- inhibition at 5 ppm (Cladosporium cucumerinum): 0%
- inhibition at 10 ppm (Cladosporium cucumerinum): 0%
- inhibition at 40 ppm (Cladosporium cucumerinum; 40 ppm): 92%
- inhibition at 20 ppm (Cladosporium cucumerinum): 23%
- Spore Germination Rating (Phytophthora infestans [1]; 1.0 ppm): 4 (80-100)
- Spore Germination Rating (Phytophthora infestans [1]; 2.5 ppm): 0 (0-10)
- Spore Germination Rating (Phytophthora infestans [1]; 10 ppm): 0 (0-10)
- Spore Germination Rating (Phytophthora infestans [1]; 40 ppm): 0 (0-10)
- pest or weed control at 150 ppm (Phytophthora infestans [2]): 100%

SMILES: Cc1cccc(Oc2nsnc(Cl)c2=O)c1 [Compound 21, 3-chloro-5-(3-methylphenoxy)-4H--1,2,6-thiadiazin-4-one]
- inhibition at 5 ppm (Cladosporium cucumerinum): 38%
- inhibition at 10 ppm (Cladosporium cucumerinum): 38%
- inhibition at 40 ppm (Cladosporium cucumerinum; 40 ppm): 85%
- inhibition at 20 ppm (Cladosporium cucumerinum): 69%
- Spore Germination Rating (Phytophthora infestans [1]; 1.0 ppm): 4 (80-100)
- Spore Germination Rating (Phytophthora infestans [1]; 2.5 ppm): 1 (10-40)
- Spore Germination Rating (Phytophthora infestans [1]; 10 ppm): 0 (0-10)
- Spore Germination Rating (Phytophthora infestans [1]; 40 ppm): 0 (0-10)
- pest or weed control at 150 ppm (Phytophthora infestans [2]): 50%

SMILES: O=c1c(Cl)nsnc1Oc1ccc(Cl)cc1 [Compound 12, 3-chloro-5-(4-chlorophenoxy)-4H--1,2,6-thiadiazin-4-one]
- inhibition at 5 ppm (Cladosporium cucumerinum): 63%
- inhibition at 10 ppm (Cladosporium cucumerinum): 58%
- inhibition at 40 ppm (Cladosporium cucumerinum; 40 ppm): 100%
- inhibition at 20 ppm (Cladosporium cucumerinum): 71%
- Spore Germination Rating (Phytophthora infestans [1]; 1.0 ppm): 1 (10-40)
- Spore Germination Rating (Phytophthora infestans [1]; 2.5 ppm): 1 (10-40)
- Spore Germination Rating (Phytophthora infestans [1]; 10 ppm): 1 (10-40)
- Spore Germination Rating (Phytophthora infestans [1]; 40 ppm): 0 (0-10)
- pest or weed control at 150 ppm (Phytophthora infestans [2]): 100%

SMILES: CC(=O)c1cccc(Oc2nsnc(Cl)c2=O)c1 [Compound 48, 3-(3-acetylphenoxy)-5-chloro-4H--1,2,6-thiadiazin-4-one]
- inhibition at 5 ppm (Cladosporium cucumerinum): 29%
- inhibition at 10 ppm (Cladosporium cucumerinum): 33%
- inhibition at 40 ppm (Cladosporium cucumerinum; 40 ppm): 100%
- inhibition at 20 ppm (Cladosporium cucumerinum): 50%
- Spore Germination Rating (Phytophthora infestans [1]; 1.0 ppm): 0 (0-10)
- Spore Germination Rating (Phytophthora infestans [1]; 2.5 ppm): 0 (0-10)
- Spore Germination Rating (Phytophthora infestans [1]; 10 ppm): 0 (0-10)
- Spore Germination Rating (Phytophthora infestans [1]; 40 ppm): 0 (0-10)
- pest or weed control at 150 ppm (Phytophthora infestans [2]): 98%

SMILES: CC(=O)c1ccccc1Oc1nsnc(Cl)c1=O [Compound 49, 3-(2-acetylphenoxy)-5-chloro-4H--1,2,6-thiadiazin-4-one]
- inhibition at 5 ppm (Cladosporium cucumerinum): 3%
- inhibition at 10 ppm (Cladosporium cucumerinum): 17%
- inhibition at 40 ppm (Cladosporium cucumerinum; 40 ppm): 64%
- inhibition at 20 ppm (Cladosporium cucumerinum): 33%
- Spore Germination Rating (Phytophthora infestans [1]; 1.0 ppm): 3 (60-80)
- Spore Germination Rating (Phytophthora infestans [1]; 2.5 ppm): 1 (10-40)
- Spore Germination Rating (Phytophthora infestans [1]; 10 ppm): 1 (10-40)
- Spore Germination Rating (Phytophthora infestans [1]; 40 ppm): 1 (10-40)
- pest or weed control at 150 ppm (Phytophthora infestans [2]): 90%

SMILES: Cc1ccc(Oc2nsnc(Cl)c2=O)c(Br)c1 [Compound 57, 3-[(2-bromo-4-methyl)-phenoxy]-5-chloro-4H--1,2,6-thiadiazin-4-one]
- inhibition at 5 ppm (Cladosporium cucumerinum): 42%
- inhibition at 10 ppm (Cladosporium cucumerinum): 56%
- inhibition at 40 ppm (Cladosporium cucumerinum; 40 ppm): 78%
- inhibition at 20 ppm (Cladosporium cucumerinum): 78%
- Spore Germination Rating (Phytophthora infestans [1]; 1.0 ppm): 4 (80-100)
- Spore Germination Rating (Phytophthora infestans [1]; 2.5 ppm): 1 (10-40)
- Spore Germination Rating (Phytophthora infestans [1]; 10 ppm): 0 (0-10)
- Spore Germination Rating (Phytophthora infestans [1]; 40 ppm): 0 (0-10)
- pest or weed control at 150 ppm (Phytophthora infestans [2]): 0%

SMILES: Cc1cc(Oc2nsnc(Cl)c2=O)cc(C)c1Br [Compound 60, 3-[(4-bromo-3,5-dimethyl)-phenoxy]-5-chloro-4H--1,2,6-thiadiazin-4-one]
- inhibition at 5 ppm (Cladosporium cucumerinum): 33%
- inhibition at 10 ppm (Cladosporium cucumerinum): 36%
- inhibition at 40 ppm (Cladosporium cucumerinum; 40 ppm): 47%
- inhibition at 20 ppm (Cladosporium cucumerinum): 44%
- Spore Germination Rating (Phytophthora infestans [1]; 1.0 ppm): 4 (80-100)
- Spore Germination Rating (Phytophthora infestans [1]; 2.5 ppm): 2 (40-60)
- Spore Germination Rating (Phytophthora infestans [1]; 10 ppm): 1 (10-40)
- Spore Germination Rating (Phytophthora infestans [1]; 40 ppm): 0 (0-10)
- pest or weed control at 150 ppm (Phytophthora infestans [2]): 0%

SMILES: Nc1ccc(Oc2nsnc(Cl)c2=O)cc1 [Compound 26, 5-(4-aminophenoxy)-3-chloro-4H--1,2,6-thiadiazin-4-one]
- Percent Fungus Growth Inhibition (Cladosporium cucumerinum; 40 ppm, 72 hours): 77%
- inhibition at 5 ppm (Cladosporium cucumerinum): 37%
- inhibition at 10 ppm (Cladosporium cucumerinum): 49%
- inhibition at 20 ppm (Cladosporium cucumerinum): 49%
- Spore Germination Rating (Phytophthora infestans [1]; 1.0 ppm): 4 (80-100)
- Spore Germination Rating (Phytophthora infestans [1]; 2.5 ppm): 4 (80-100)
- Spore Germination Rating (Phytophthora infestans [1]; 10 ppm): 4 (80-100)
- Spore Germination Rating (Phytophthora infestans [1]; 40 ppm): 2 (40-60)
- Percent Disease Control, foliar, tomato late blight (Phytophthora infestans [2]; 150 ppm, protective): 0%

SMILES: O=c1c(Cl)nsnc1Oc1c(Cl)c(Cl)c(Cl)c(Cl)c1Cl [Compound 31, 3-chloro-5-(pentachlorophenoxy)-4H--1,2,6-thiadiazine-4-one]
- inhibition at 5 ppm (Cladosporium cucumerinum): 54%
- inhibition at 10 ppm (Cladosporium cucumerinum): 57%
- inhibition at 40 ppm (Cladosporium cucumerinum; 40 ppm): 69%
- inhibition at 20 ppm (Cladosporium cucumerinum): 60%
- Spore Germination Rating (Phytophthora infestans [1]; 1.0 ppm): 4 (80-100)
- Spore Germination Rating (Phytophthora infestans [1]; 2.5 ppm): 3 (60-80)
- Spore Germination Rating (Phytophthora infestans [1]; 10 ppm): 2 (40-60)
- Spore Germination Rating (Phytophthora infestans [1]; 40 ppm): 2 (40-60)
- pest or weed control at 150 ppm (Phytophthora infestans [2]): 0%

SMILES: O=c1c(Cl)nsnc1Oc1ccc(Br)cc1 [Compound 15, 3-chloro-5-(4-bromophenoxy)-4H--1,2,6-thiadiazin-4-one]
- inhibition at 5 ppm (Cladosporium cucumerinum): 9%
- inhibition at 10 ppm (Cladosporium cucumerinum): 55%
- inhibition at 40 ppm (Cladosporium cucumerinum; 40 ppm): 100%
- inhibition at 20 ppm (Cladosporium cucumerinum): 82%
- Spore Germination Rating (Phytophthora infestans [1]; 1.0 ppm): 0 (0-10)
- Spore Germination Rating (Phytophthora infestans [1]; 2.5 ppm): 1 (10-40)
- Spore Germination Rating (Phytophthora infestans [1]; 10 ppm): 0 (0-10)
- Spore Germination Rating (Phytophthora infestans [1]; 40 ppm): 0 (0-10)
- pest or weed control at 150 ppm (Phytophthora infestans [2]): 100%

Reference: US4450269A, “Mono-5-substituted-3-chloro-4H-1,2,6-thiadiazin-4-one antifungal agents” (FMC Corporation, priority 1980, dated 1984)
